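Where inhibition never reached the appropriate level, the endpoint shown equals the highest concentration tested. Otherwise, values were interpolated linearly from a five-concentration, 48-hour dose response in 96-well plates. Abbreviation: GI50, concentration required for 50% inhibition of growth. TGI: concentration producing complete growth inhibition.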

Test systems include SF-295 CNS; CCRF-CEM leukemia; HOP-62 NSCLC; SF-268 CNS; NCI-H522 lung; SNB-75 CNS; MDA-MB-231 breast; KM12 colon; COLO 205 colon; HOP-92 NSCLC.
What all share (test): growth of human tumour cells (NCI), 48 h

Turning to `COc1ncnc2c(-c3ccccc3)cn(COCc3ccccc3)c12`, the GI50 is 2.82 µM in the test with SF-295 CNS; 3.58 µM in the test on CCRF-CEM leukemia; 5.78 µM in the test with HOP-62 NSCLC; 4.25 µM in the test with SF-268 CNS; 2.09 µM with NCI-H522 lung; 4.03 µM in the test with SNB-75 CNS. The GI50 with MDA-MB-231 breast is 4.04 µM; in the test with KM12 colon it was 3.1 µM; with COLO 205 colon, 2.69 µM. Moreover, the TGI with SF-295 CNS was 15.4 µM; in the test with CCRF-CEM leukemia, over 100 µM; in the test on HOP-62 NSCLC it was 87.6 µM; in the test on SF-268 CNS, over 100 µM; with NCI-H522 lung, 6.17 µM; in the test on SNB-75 CNS, over 100 µM. Further, the TGI in the test on MDA-MB-231 breast is over 100 µM; in the test on KM12 colon, 19.9 µM; in the test with COLO 205 colon, 7.73 µM.

For `C=CCOc1cc(NC(=S)c2ccoc2C)ccc1OC`, the TGI in the test on SF-295 CNS, in the test on CCRF-CEM leukemia, in the test on SF-268 CNS, with NCI-H522 lung, in the test on SNB-75 CNS and in the test with MDA-MB-231 breast was over 100 µM in each case. Also, the TGI in the test with HOP-92 NSCLC, with KM12 colon and with COLO 205 colon was over 100 µM in each case.

With `C[C@H](NC(=O)[C@@H](C)N)[C@H](Oc1ccc2c(cnn2-c2ccc(F)cc2)c1)c1ccc2c(c1)OCCO2`, the GI50 with SF-295 CNS was 1.95 µM; with CCRF-CEM leukemia, 1.49 µM; in the test with HOP-62 NSCLC, 4.34 µM; in the test with SF-268 CNS it was 2.48 µM; in the test with NCI-H522 lung, 1.9 µM; in the test with SNB-75 CNS, 3.15 µM. Moreover, the GI50 in the test on MDA-MB-231 breast is 1.93 µM; in the test with KM12 colon it was 2.13 µM; in the test with COLO 205 colon it was 1.83 µM. The TGI in the test with SF-295 CNS came to 3.9 µM; with CCRF-CEM leukemia it was 4.6 µM; in the test on HOP-62 NSCLC, 20.1 µM; in the test on SF-268 CNS, 10.7 µM; with NCI-H522 lung, 3.78 µM; with SNB-75 CNS, 10.8 µM. Moreover, the values for the TGI in the test with MDA-MB-231 breast, in the test with KM12 colon and with COLO 205 colon were 4.69 µM, 5.15 µM and 3.61 µM, respectively.

Take `COc1ccc(/C=C/C(=O)c2cc(OC)c(OC)c(OC)c2)cc1OCc1cn(Cc2ccc(F)cc2)nn1`: the GI50 is 2.14 µM in the test on CCRF-CEM leukemia; 2.14 µM in the test with HOP-62 NSCLC; 2.98 µM in the test with SF-268 CNS; 1.74 µM in the test on NCI-H522 lung; 2.84 µM in the test on MDA-MB-231 breast; 3.14 µM in the test with KM12 colon. For the same molecule, the GI50 in the test on COLO 205 colon is 2.98 µM. Further, the TGI is 8.66 µM with CCRF-CEM leukemia; 6.18 µM in the test on HOP-62 NSCLC; over 100 µM with SF-268 CNS; 5.22 µM in the test with NCI-H522 lung; over 100 µM in the test with MDA-MB-231 breast; 18.2 µM in the test on KM12 colon. The molecule also yielded a TGI in the test on COLO 205 colon of 8.38 µM.

Turning to `N.N.N.N.[Co+3].[N-]=[N+]=[N-].[N-]=[N+]=[N-].[N-]=[N+]=[N-]`, the GI50 was over 100 µM in the test on SF-295 CNS; 61.1 µM in the test on CCRF-CEM leukemia; over 100 µM in the test with HOP-62 NSCLC; 47.4 µM with SF-268 CNS; 39.7 µM in the test on NCI-H522 lung; over 100 µM in the test on SNB-75 CNS. Further, the GI50 was 19 µM in the test on HOP-92 NSCLC, over 100 µM in the test with KM12 colon and over 100 µM in the test with COLO 205 colon. Moreover, the TGI in the test on SF-295 CNS, in the test on CCRF-CEM leukemia, in the test on HOP-62 NSCLC, in the test with SF-268 CNS, in the test with NCI-H522 lung and in the test on SNB-75 CNS was over 100 µM throughout. Further, the TGI with HOP-92 NSCLC, with KM12 colon and with COLO 205 colon was over 100 µM throughout.

In the case of `CN1CCC2(CC1)ONC1=NCCN12`, the GI50 in the test with SF-295 CNS is 44.5 µM; in the test on CCRF-CEM leukemia it was 13.4 µM; with HOP-62 NSCLC, 52.9 µM; in the test on SF-268 CNS, 37.2 µM; in the test on NCI-H522 lung, 29.3 µM; with SNB-75 CNS, 66.8 µM. For the same molecule, the values for the GI50 in the test with MDA-MB-231 breast, in the test with KM12 colon and in the test with COLO 205 colon were 46 µM, 26.6 µM and 31.1 µM, respectively. Also, the TGI with SF-295 CNS is over 100 µM; in the test on CCRF-CEM leukemia, 42.3 µM; with HOP-62 NSCLC, over 100 µM; with SF-268 CNS, over 100 µM; with NCI-H522 lung, over 100 µM; in the test on SNB-75 CNS it was over 100 µM. Besides, the TGI with MDA-MB-231 breast, in the test with KM12 colon and with COLO 205 colon was over 100 µM in each case.

For the molecule `C=C1C(=O)O[C@H]2[C@H]1CC/C(COC(=O)CSCSCC(=O)OC/C1=C/CC[C@@]3(C)O[C@H]3[C@H]3OC(=O)C(=C)[C@@H]3CC1)=C\CC[C@@]1(C)O[C@@H]21`, the GI50 in the test with SF-295 CNS is 1.85 µM; in the test on CCRF-CEM leukemia it was 0.304 µM; in the test on HOP-62 NSCLC, 2.59 µM; in the test on SF-268 CNS it was 1.79 µM; in the test on NCI-H522 lung, 1.48 µM; in the test on MDA-MB-231 breast it was 1.39 µM. In addition, the figures for the GI50 in the test with HOP-92 NSCLC, in the test with KM12 colon and in the test on COLO 205 colon were 1.39 µM, 1.93 µM and 1.34 µM, respectively. Besides, the TGI worked out at 4.46 µM in the test with SF-295 CNS; 1.47 µM in the test on CCRF-CEM leukemia; 8.38 µM with HOP-62 NSCLC; 4.31 µM in the test on SF-268 CNS; 3.2 µM in the test on NCI-H522 lung; 3 µM in the test with MDA-MB-231 breast. For the same molecule, the TGI amounted to 2.85 µM in the test with HOP-92 NSCLC, 3.77 µM in the test on KM12 colon and 3.06 µM in the test with COLO 205 colon.

Turning to `CC(C)=CC1C[C@H](C2CC=C3C2(C)CCC2[C@@]3(C)C(=O)CC3[C@]2(C)C=CC(=O)[C@]3(C)CO)CO1` (some centres undefined), the TGI with SF-295 CNS came to 32.1 µM; in the test with CCRF-CEM leukemia, 8.71 µM; in the test with HOP-62 NSCLC it was 30.6 µM; in the test on SF-268 CNS, 23.1 µM; in the test on NCI-H522 lung, 8.71 µM; with SNB-75 CNS, 23.1 µM. Also, the values for the TGI with HOP-92 NSCLC, with KM12 colon and in the test on COLO 205 colon were 41.3 µM, 19.9 µM and 27.2 µM, respectively.

Regarding `CNC(=O)Nc1nc2ccc([N+](=O)[O-])cc2[nH]1`, the TGI with SF-295 CNS, in the test on CCRF-CEM leukemia, with HOP-62 NSCLC, with SF-268 CNS, in the test with NCI-H522 lung and in the test on MDA-MB-231 breast was over 100 µM in each case. For the same molecule, the TGI in the test on HOP-92 NSCLC, in the test with KM12 colon and in the test with COLO 205 colon was over 100 µM each time.

As to `CCOc1cccc(/C=N/N=C2\C(=O)Nc3c(Cl)cc(Cl)cc32)c1O`, the TGI is over 100 µM in the test with SF-295 CNS; over 100 µM in the test on CCRF-CEM leukemia; over 100 µM in the test with HOP-62 NSCLC; 89.6 µM with SNB-75 CNS; over 100 µM with MDA-MB-231 breast; over 100 µM in the test on HOP-92 NSCLC. Besides, the TGI with KM12 colon and in the test with COLO 205 colon was over 100 µM throughout.

The values are drawn from PubChem BioAssay (NCI).
